Patent US5607970A, “ACAT inhibitory agent” (priority 1991, dated 1997)
Read-outs that look alike come from different tables or passages of the source.

Experiments:
[1] = target: T1, ACAT (AcylCoA-Cholesterolacyltransferase) (Oryctolagus cuniculus, UniProt G1SFD9); experiment: ACAT inhibitory activity in test tube (method of Heider et al., [1-14C]oleylCoA, small intestine epithelium microsome fraction); type: biochemical, rabbit; conditions: read-out: Inhibitory Ratio (%)
T1 construct: from tissue; host or cells: rabbit small intestine epithelium, microsome fraction
T1 sequence (G1SFD9 1-524): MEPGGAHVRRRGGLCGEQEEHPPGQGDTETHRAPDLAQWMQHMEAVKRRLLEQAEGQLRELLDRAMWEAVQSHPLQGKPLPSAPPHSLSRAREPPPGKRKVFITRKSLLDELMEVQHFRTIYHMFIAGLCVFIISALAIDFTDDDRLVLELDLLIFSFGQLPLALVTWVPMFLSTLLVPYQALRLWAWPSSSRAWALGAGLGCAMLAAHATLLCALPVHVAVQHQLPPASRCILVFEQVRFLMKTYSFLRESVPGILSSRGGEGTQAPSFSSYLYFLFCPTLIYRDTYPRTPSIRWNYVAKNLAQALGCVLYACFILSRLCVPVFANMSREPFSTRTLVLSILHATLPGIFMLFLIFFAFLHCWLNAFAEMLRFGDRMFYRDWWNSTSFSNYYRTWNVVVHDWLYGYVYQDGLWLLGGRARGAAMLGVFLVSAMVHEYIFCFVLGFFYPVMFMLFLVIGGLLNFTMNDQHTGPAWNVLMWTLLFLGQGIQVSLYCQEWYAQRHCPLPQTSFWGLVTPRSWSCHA
Method: That is, a rabbit is fed a 1% cholesterol diet for 3 weeks followed by dissection and extraction of the small intestine. After peeling off the small intestine epithelium and crushing with a homogenizer, incompletely crushed solids are removed by centrifugal separation. […] After allowing the reaction to proceed for the prescribed amount of time, 7 ml of a mixture of dichloromethane: methanol (2:1) is added to the reaction mixture and thoroughly mixed. The reaction, is stopped and the dichloromethane layer is removed, after which the cholesterol oleate portion is separated from that fraction by silica gel TLC (developing solution: petroleum ether:diethyl ether=95:5). The separated portion is scraped off and the radioactivity is measured using a liquid scintillation counter to calculate ACAT activity.

[2] = system: ACAT activity of small intestine epithelial cells; experiment: Animal test: ACAT activity of small intestine epithelial cells after administration in feed; type: in vivo; conditions: male hamsters, 1 mg/animal/day mixed in feed
Method: A test substance according to the present invention was administered to hamsters (males, body weight: 100 g) at a dose of 1 mg/animal/day by mixing in the same to their feed. The ACAT activity of small intestine epithelial cells was then measured after one week and after two weeks.

[3] = Concentration 20 μg/ml, rabbit small intestine microsome ACAT
[4] = Concentration 50 μg/ml, rabbit small intestine microsome ACAT
[5] = Concentration 100 μg/ml, rabbit small intestine microsome ACAT
[6] = Concentration 150 μg/ml, rabbit small intestine microsome ACAT
[7] = Concentration 200 μg/ml, rabbit small intestine microsome ACAT

inhibition at 20 µg/mL [1, 3] [%]	inhibition at 50 µg/mL [1, 4] [%]	inhibition at 100 µg/mL [1, 5] [%]	inhibition at 150 µg/mL [1, 6] [%]	inhibition at 200 µg/mL [1, 7] [%]	Compound	inhibition at 20 µg/mL [1] [%]	inhibition at 50 µg/mL [1] [%]	inhibition at 100 µg/mL [1] [%]	inhibition at 150 µg/mL [1] [%]	inhibition at 200 µg/mL [1] [%]	ACAT Inhibitory Ratio (%) After 1 week [2] [%]	ACAT Inhibitory Ratio (%) After 2 weeks [2] [%]
–	–	–	–	–	CC/C=C\C/C=C\C/C=C\CCCCCCCC(=O)OCC(O)CO (stereo not shown) [1-linolenoylglycerol]	25	50	76	86	92	57	51
24	53	72	84	91	CCCCCC/C=C\CCCCCCCC(=O)OCC(O)CO (stereo not shown) [1-palmitooleylglycerol]	–	–	–	–	–	57	54
–	–	–	–	–	CCCCCCCC/C=C\CCCCCCCC(=O)OC(CO)CO	32	62	82	94	100	64	56
28	54	74	86	93	CCCCC/C=C\C/C=C\CCCCCCCC(=O)OCC(O)CO (stereo not shown)	–	–	–	–	–	59	53
–	–	–	–	–	CCCCCCCC/C=C\CCCCCCCC(=O)OCC(O)CO (stereo not shown)	30	59	81	92	100	60	52
–	–	–	–	–	CCCCCCCCCCCCCCCCCC(=O)OCC(O)CO (stereo not shown) [1-stearoylglycerol]	15	29	38	45	49	31	29
26	56	75	86	94	CCCCCCCCCCCCCCCC(=O)OCC(O)CO (stereo not shown) [1-palmitoylglycerol]	–	–	–	–	–	56	50
